Holding throughout (type): cell-based
Test [1] concerns the target T1, Pannexin1 (Panx1) (Homo sapiens, UniProt Q96RD7). The test is described as follows: whole-cell patch clamp in transfected HEK293 cells. A general note: In patch-clamp work, channel activity is measured electrically.
Test [2] concerns the target T1, Pannexin1 (Panx1). The test is described as follows: whole-cell patch clamp of Panx1-transfected HEK293 cells, dose response.
Test [3] deals with T1, Pannexin1 (Panx1). Nature of the test: whole-cell patch clamp in transfected HEK293 cells. The source holds these as a separate data set.

In general, pIC50 refers to the negative decadic logarithm of the IC50, by convention in mol/L. Lower therefore signals a high IC50.

pIC50: −log10 of the molar value.

T1 sequence (Q96RD7 whole entry): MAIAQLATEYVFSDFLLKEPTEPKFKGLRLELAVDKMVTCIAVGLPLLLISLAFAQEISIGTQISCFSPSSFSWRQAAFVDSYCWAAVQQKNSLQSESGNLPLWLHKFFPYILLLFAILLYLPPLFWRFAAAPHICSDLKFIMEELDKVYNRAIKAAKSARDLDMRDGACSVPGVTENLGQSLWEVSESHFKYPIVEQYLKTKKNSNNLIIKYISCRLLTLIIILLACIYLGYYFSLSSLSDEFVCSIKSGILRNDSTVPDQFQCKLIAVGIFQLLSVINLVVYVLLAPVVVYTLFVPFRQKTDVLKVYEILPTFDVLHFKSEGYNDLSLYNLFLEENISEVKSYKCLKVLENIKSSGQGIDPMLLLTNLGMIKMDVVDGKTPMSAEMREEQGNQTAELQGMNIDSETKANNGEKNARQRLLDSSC

As for `COc1ccc(Cl)cc1C(=O)NCCc1ccc(S(=O)(=O)NC(=O)NC2CCCCC2)cc1` [glybenclamide], the “whole-cell patch clamp in transfected HEK293 cells (150 μM)” value on Pannexin1 (Panx1) [1] is recorded as “W74 is essential not only for CBX, but also for the other four Panx1 inhibitors to function”.

As to `CC1(C)[C@@H](OC(=O)CCC(=O)O)CC[C@]2(C)[C@H]3C(=O)C=C4[C@@H]5C[C@@](C)(C(=O)O)CC[C@]5(C)CC[C@@]4(C)[C@]3(C)CC[C@@H]12` [carbenoxolone], the pIC50 at Pannexin1 (Panx1) [2] was around 5.70.

On to `CCCN(CCC)S(=O)(=O)c1ccc(C(=O)O)cc1` [probenecid], for which the “whole-cell patch clamp in transfected HEK293 cells (3 mM and 10 mM)” value on Pannexin1 (Panx1) [3] was “suggesting that binding of probenecid trapped Panx1 in a nonresting closed conformation”.
